Measurements published in patent US10551389B2, “Target binding molecules identified by kinetic target-guided synthesis” (UNIVERSITY OF SOUTH FLORIDA, priority 2013, dated 2020).

Assays:
Mcl-1 = Mcl-1 (Homo sapiens, UniProt Q07820); assay: Inhibition of Mcl-1 (disruption of Mcl-1/Bim interaction); assay type: binding; details: for inhibition at 25 µM / % Inhibition (25 μM) Mcl-1: compound at 25 μM; for inhibition at 50 µM / % Inhibition (50 μM) Mcl-1: compound at 50 μM
Protocol: (§1) In a subsequent study, a structurally diverse library of forty five thio acids and thirty eight sulfonyl azides (identified above) was screened in parallel against Mcl-1 and Bcl-XL using the above mentioned approach. Several potential hit combinations were identified (Table 3). All of these kinetic TGS hit compounds were synthesized (identified above and in Table 3). All the reactions were performed at 20-30 mg scale. The 9-fluorenylmethyl thioester was placed in a 2.0 mL vial and 3.5% DBU/dry DMF solution was added (per 1 μmol of thioester, 4.7 μL, of 3.5% DBU/dry DMF solution was added) and the reaction was stirred for one minute. Then the sulfonylazide (1 eq to thioester) was added to the reaction mixture and immediately bubbling was observed. After the reaction was completed (approximately one minute, monitored by LC-MS) water (200 μL) was added and the pH was adjusted to 7.0 using 1M HCl solution. The reaction mixture was extracted with DCM until there is no product in the aqueous layer (checked by TLC or LC-MS). The product was purified by flash chromatography. Testing of these acylsulfonamides has shown that the hit compounds disrupt the Bcl-XL/Bim or Mcl-1/Bim interaction (Table 3).

Bcl-XL = Bcl-XL (Homo sapiens, UniProt Q07817); assay: Inhibition of Bcl-XL (disruption of Bcl-XL/Bim interaction); assay type: binding; details: for inhibition at 25 µM / % Inhibition (25 μM) Bcl-XL: compound at 25 μM; for % Inhibition (50 μM) Bcl-XL / inhibition at 50 µM: compound at 50 μM
Bcl-XL, sequence (Q07817 whole entry, species assumed): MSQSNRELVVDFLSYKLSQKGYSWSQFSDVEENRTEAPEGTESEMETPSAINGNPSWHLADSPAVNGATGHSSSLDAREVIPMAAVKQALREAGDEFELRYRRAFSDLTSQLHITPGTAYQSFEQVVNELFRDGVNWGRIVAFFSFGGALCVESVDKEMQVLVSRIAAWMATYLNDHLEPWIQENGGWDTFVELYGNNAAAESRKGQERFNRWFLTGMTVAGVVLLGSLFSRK
Protocol: as §1

Mcl-1, sequence (Q07820 whole entry, species assumed): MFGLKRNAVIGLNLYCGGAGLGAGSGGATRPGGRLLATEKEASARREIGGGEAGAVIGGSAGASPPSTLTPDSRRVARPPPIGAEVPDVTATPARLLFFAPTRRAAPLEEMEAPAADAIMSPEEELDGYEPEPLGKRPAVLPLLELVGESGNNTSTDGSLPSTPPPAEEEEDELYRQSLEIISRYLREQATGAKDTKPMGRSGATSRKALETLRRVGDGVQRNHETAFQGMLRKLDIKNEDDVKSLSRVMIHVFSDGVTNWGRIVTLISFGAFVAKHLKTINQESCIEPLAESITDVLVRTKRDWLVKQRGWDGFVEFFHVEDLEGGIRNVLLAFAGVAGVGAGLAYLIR

IC50 (Mcl-1) [µM] | inhibition at 25 µM (Mcl-1) [%] | inhibition at 50 µM (Mcl-1) [%] | inhibition at 25 µM (Bcl-XL) [%] | % Inhibition (25 μM) Mcl-1 (Mcl-1) [%] | % Inhibition (50 μM) Mcl-1 (Mcl-1) [%] | % Inhibition (25 μM) Bcl-XL (Bcl-XL) [%] | % Inhibition (50 μM) Bcl-XL (Bcl-XL) [%] | inhibition at 50 µM (Bcl-XL) [%] | IC50 (Bcl-XL) [µM] | SMILES
5.9 | 61.2 | > 99 | 9.5 | – | – | – | – | – | – | O=C(NS(=O)(=O)c1ccc(CN(CCSc2ccccc2)Cc2ccc3c(c2)OCO3)cc1)c1ccc(OC(F)(F)F)cc1 [SZ31TA8]
– | – | – | – | 56.2 | 59.5 | 17.3 | 13.3 | – | – | O=C(NS(=O)(=O)c1ccc(CN(CCSc2ccccc2)Cc2ccc3c(c2)OCO3)cc1)c1ccc(-c2ccc(F)cc2)cc1 [SZ31TA14]
14 | 82 | – | 18.5 | – | – | – | – | 21.4 | – | O=C(Cn1c2ccccc2c2ccccc21)NS(=O)(=O)c1ccc(CN(CCSc2ccccc2)Cc2ccc3c(c2)OCO3)cc1 [SZ31TA15]
16.8 | 84.3 | 88.6 | 40.2 | – | – | – | – | 77.7 | 31.3 | O=C(NS(=O)(=O)c1ccc(CN(CCSc2ccccc2)Cc2ccc3c(c2)OCO3)cc1)c1ccc(CCc2ccccn2)cc1 [SZ31TA17]
20 | 59.9 | – | 8.2 | – | – | – | – | 15.5 | – | COc1ccc(Cc2ccc(C(=O)NS(=O)(=O)c3ccc(CN(CCSc4ccccc4)Cc4ccc5c(c4)OCO5)cc3)cc2)c(OC)c1OC [SZ31TA24]
– | – | – | – | 32.4 | 30.6 | <2.0 | <2.0 | – | – | O=C(NS(=O)(=O)c1ccc(CN(CCSc2ccccc2)Cc2ccc3c(c2)OCO3)cc1)c1ccc2c(ccn2Cc2ccc(C(F)(F)F)cc2C(F)(F)F)c1 [SZ31TA30]
– | – | – | – | <2.0 | <2.0 | <2.0 | <2.0 | – | – | O=C(NS(=O)(=O)c1ccc(CN(CCSc2ccccc2)Cc2ccc3c(c2)OCO3)cc1)c1ccc(C(c2c[nH]c3ccccc23)c2c[nH]c3ccccc23)cc1 [SZ31TA31]
– | – | – | – | <2.0 | <2.0 | <2.0 | <2.0 | – | – | Cn1cc(C(=O)C2CCCCC2)c2cc(C(=O)NS(=O)(=O)c3ccc(CN(CCSc4ccccc4)Cc4ccc5c(c4)OCO5)cc3)ccc21 [SZ31TA40]
– | – | – | – | 14.9 | 36.5 | <2.0 | <2.0 | – | – | O=C(NS(=O)(=O)c1ccc(CN(CCSc2ccccc2)Cc2ccc3c(c2)OCO3)cc1)c1cccc(NCCc2ccccc2)c1 [SZ31TA44]
– | – | – | – | 53.8 | 40.2 | 7.2 | <2.0 | – | – | Cn1cc(C(=O)c2cccs2)c2cc(C(=O)NS(=O)(=O)c3ccc(CN(CCSc4ccccc4)Cc4ccc5c(c4)OCO5)cc3)ccc21 [SZ31TA45]
19.1 | 72.2 | – | 26 | – | – | – | – | 59.4 | – | Cc1noc(C)c1-c1ccc(S(=O)(=O)NC(=O)c2ccc(CN3C(=O)C(c4ccc(F)cc4F)=C(c4ccc(F)cc4F)C3=O)cc2)cc1 [SZ32TA42]
29.3 | 49 | > 99 | 19.1 | – | – | – | – | 58 | – | CN(C)C(=O)c1cccc(-c2ccc(S(=O)(=O)NC(=O)c3ccc(CN4C(=O)C(c5ccc(F)cc5F)=C(c5ccc(F)cc5F)C4=O)cc3)cc2)c1 [SZ34TA42]
– | – | – | – | <2.0 | 22.7 | 21.8 | <2.0 | – | – | O=C(NS(=O)(=O)c1ccc(-c2cc3ccccc3s2)cc1)c1ccc(CN2C(=O)C(c3ccc(F)cc3F)=C(c3ccc(F)cc3F)C2=O)cc1 [SZ37TA42]
60.6 | – | – | – | 30.8 | 44.7 | 83.7 | 90.6 | – | 2.08 | O=C(NS(=O)(=O)c1ccc(NCCSc2ccccc2)c([N+](=O)[O-])c1)c1ccc(CCc2ccccn2)cc1 [SZATA17]
